Patent publication US10464947B2 (Incyte Corporation, priority 2013, dated 2019)
Structures can show the parent of a compound that is named as a salt. Where two headings read alike, the source gives them in different places.

System: KMS.12.BM cells
Assay: KMS.12.BM Cell Viability Assay (Example B1)
Type: cell-based, human
Conditions: Homo sapiens, 72 h, 3 days, Cell Titer-GLO, read-out: KMS cellular IC50
Procedure: KMS.12.BM cell line (human myeloma) was purchased from JCRB (Osaka, Japan) and maintained in RPMI with 10% FBS culture medium. To measure the cytotoxic activity of the compounds through ATP quantitation, the KMS.12.BM cells are plated in the RPMI culture medium at 5000 cells/well/per 100 μL into a 96-well polystyrene clear black tissue culture plate (Greiner-bio-one through VWR, NJ), in the presence or absence of a concentration range of test compounds. After 3 days, […] Cell Titer-GLO Luminescent (Promega, Madison, Wis.) cell culture agent is added to each well for 10 min. at room temperature to stabilize the luminescent signal. This determines the number of viable cells in culture based on quantitation of the ATP present, which signals the presence of metabolically active cells.

Compound	IC50 [nM]	IC50 (KMS-12-BM) [nM]
Cc1noc(C)c1-c1ccc2nc(N3CCN(C(=O)OC(C)(C)C)CC3)n3c2c1OCC3c1ccccc1 (stereo not drawn) [Example 60]	< 1000	–
C=Cc1nc2ccc(-c3c(C)noc3C)c3c2n1[C@@H](c1ccccn1)CO3 [Example 88, (4S)-7-(3,5-Dimethylisoxazol-4-yl)-4-pyridin-2-yl-2-vinyl-4,5-dihydroimidazo[1,5,4-de][1,4]benzoxazine]	< 1000	–
Cc1noc(C)c1-c1ccc2nc([C@@H](O)CO)n3c2c1OC[C@@H]3c1ccccn1 [Example 89, (1R)-1-[(4S)-7-(3,5-Dimethylisoxazol-4-yl)-4-pyridin-2-yl-4,5-dihydroimidazo[1,5,4-de][1,4]benzoxazin-2-yl]ethane-1,2-diol]	< 1000	–
Cc1noc(C)c1-c1ccc2nc(C(C)O)n3c2c1OC[C@@H]3c1ccccn1 (stereo partly drawn) [Example 90, 1-[(4S)-7-(3,5-Dimethylisoxazol-4-yl)-4-pyridin-2-yl-4,5-dihydroimidazo[1,5,4-de][1,4]benzoxazin-2-yl]ethanol]	< 1000	–
Cc1noc(C)c1-c1ccc2nc(C(=O)N(C)C)n3c2c1OC[C@@H]3c1ccccn1 [Example 91, (4S)-7-(3,5-Dimethylisoxazol-4-yl)-N,N-dimethyl-4-pyridin-2-yl-4,5-dihydroimidazo[1,5,4-de][1,4]benzoxazine-2-carboxamide]	< 1000	–
Cc1noc(C)c1-c1ccc2ncn3c2c1OC[C@@H]3c1ccccn1 [Example 92, (4S)-7-(3,5-Dimethylisoxazol-4-yl)-4-pyridin-2-yl-4,5-dihydroimidazo[1,5,4-de][1,4]benzoxazine]	< 1000	–
Cc1noc(C)c1-c1ccc2nc(C(=O)OC(C)(C)C)n3c2c1OC[C@@H]3c1ccccn1 [Example 93, tert-Butyl (4S)-7-(3,5-dimethylisoxazol-4-yl)-4-pyridin-2-yl-4,5-dihydroimidazo[1,5,4-de][1,4]benzoxazine-2-carboxylate]	< 1000	–
Cc1noc(C)c1-c1ccc2nc(C3=CCN(C(=O)OC(C)(C)C)CC3)n3c2c1OC[C@@H]3c1ccccn1 [Example 97, tert-Butyl 4-[(4S)-7-(3,5-dimethylisoxazol-4-yl)-4-pyridin-2-yl-4,5-dihydroimidazo[1,5,4-de][1,4]benzoxazin-2-yl]-3,6-dihydropyridine-1 (2H)-carboxylate]	< 1000	–
Cc1noc(C)c1-c1ccc2nc(C3CCN(C(=O)OC(C)(C)C)CC3)n3c2c1OC[C@@H]3c1ccccn1 [Example 100, tert-Butyl 4-[(4S)-7-(3,5-dimethylisoxazol-4-yl)-4-pyridin-2-yl-4,5-dihydroimidazo[1,5,4-de][1,4]benzoxazin-2-yl]piperidine-1-carboxylate]	< 1000	–
Cc1noc(C)c1-c1ccc2nc(C3CCNCC3)n3c2c1OC[C@@H]3c1ccccn1 [Example 103]	< 1000	–
Cc1noc(C)c1-c1ccc2nc(C3=CCNCC3)n3c2c1OC[C@@H]3c1ccccn1 [Example 104, (4S)-7-(3,5-dimethylisoxazol-4-yl)-4-pyridin-2-yl-2-(1,2,3,6-tetrahydropyridin-4-yl)-4,5-dihydroimidazo[1,5,4-de][1,4]benzoxazine]	< 1000	–
Cc1noc(C)c1-c1ccc2nc(C3CCN(C(=O)C4CC4)CC3)n3c2c1OC[C@@H]3c1ccccn1 [Example 111, (4S)-2-[1-(cyclopropylcarbonyl)piperidin-4-yl]-7-(3,5-dimethylisoxazol-4-yl)-4-pyridin-2-yl-4,5-dihydroimidazo[1,5,4-de][1,4]benzoxazine]	< 1000	–
Cc1noc(C)c1-c1ccc2nc(C3CCN(S(C)(=O)=O)CC3)n3c2c1OC[C@@H]3c1ccccn1 [Example 112, (4S)-7-(3,5-dimethylisoxazol-4-yl)-2-[1-(methylsulfonyl)piperidin-4-yl]-4-pyridin-2-yl-4,5-dihydroimidazo[1,5,4-de][1,4]benzoxazine]	< 1000	–
Cc1noc(C)c1-c1ccc2[nH]c(=O)n3c2c1CCC3c1ccccc1 (stereo not drawn) [Example 120, 7-(3,5-Dimethylisoxazol-4-yl)-4-phenyl-5,6-dihydro-4H-imidazo[4,5,1-ij]quinolin-2(1H)-one]	< 1000	–
COn1c(=O)n2c3c(c(-c4c(C)noc4C)ccc31)CCC2c1ccccn1 (stereo not drawn) [Example 122, 7-(3,5-Dimethylisoxazol-4-yl)-1-methoxy-4-pyridin-2-yl-5,6-dihydro-4H-imidazo[4,5,1-ij]quinolin-2(1H)-one trifluoroacetate]	< 1000	–
Cc1noc(C)c1-c1ccc2[nH]c(=O)n3c2c1CCC3c1ccccn1 (stereo not drawn) [Example 123, 7-(3,5-Dimethylisoxazol-4-yl)-4-pyridin-2-yl-5,6-dihydro-4H-imidazo[4,5,1-ij]quinolin-2(1H)-one trifluoroacetate]	< 1000	–
Cc1noc(C)c1-c1ccc2[nH]c(=O)n3c2c1OCC3c1cccnc1C(=O)N(C)C (stereo not drawn) [Example 129, 3-[7-(3,5-Dimethylisoxazol-4-yl)-2-oxo-1,2,4,5-tetrahydroimidazo[1,5,4-de][1,4]benzoxazin-4-yl]-N,N-dimethylpyridine-2-carboxamide]	–	< 1000
CC(=O)NCc1ncccc1C1COc2c(-c3c(C)noc3C)ccc3[nH]c(=O)n1c23 (stereo not drawn) [Example 131, N-({3-[7-(3,5-Dimethylisoxazol-4-yl)-2-oxo-1,2,4,5-tetrahydroimidazo[1,5,4-de][1,4]benzoxazin-4-yl]pyridin-2-yl}methyl)acetamide]	< 1000	–
Cc1noc(C)c1-c1cc(CNC(=O)CN(C)C)c2[nH]c(=O)n3c2c1OC[C@@H]3c1ccccn1 [Example 143, 2-(Dimethylamino)-N-{[(4S)-7-(3,5-dimethylisoxazol-4-yl)-2-oxo-4-pyridin-2-yl-1,2,4,5-tetrahydroimidazo[1,5,4-de][1,4]benzoxazin-9-yl]methyl}acetamide]	< 1000	–
Cc1noc(C)c1-c1ccc2nc(N3CC[C@@H](C(=O)NC(C)C)C3)n3c2c1OC[C@@H]3c1ccccn1 [Example 145, (3R)-1-[(4S)-7-(3,5-Dimethylisoxazol-4-yl)-4-pyridin-2-yl-4,5-dihydroimidazo[1,5,4-de][1,4]benzoxazin-2-yl]-N-isopropylpyrrolidine-3-carboxamide]	< 1000	–
Cc1noc(C)c1-c1ccc2nc(N3CCCN(S(N)(=O)=O)CC3)n3c2c1OC[C@@H]3c1ccccn1 [Example 147, 4-[(4S)-7-(3,5-Dimethylisoxazol-4-yl)-4-pyridin-2-yl-4,5-dihydroimidazo[1,5,4-de][1,4]benzoxazin-2-yl]-1,4-diazepane-1-sulfonamide]	< 1000	–
CC(=O)N1CCCN(c2nc3ccc(-c4c(C)noc4C)c4c3n2[C@@H](c2ccccn2)CO4)CC1 [Example 148, (4S)-2-(4-Acetyl-1,4-diazepan-1-yl)-7-(3,5-dimethylisoxazol-4-yl)-4-pyridin-2-yl-4,5-dihydroimidazo[1,5,4-de][1,4]benzoxazine]	< 1000	–
Cc1noc(C)c1-c1ccc2nc(N3CCCN(S(C)(=O)=O)CC3)n3c2c1OC[C@@H]3c1ccccn1 [Example 149, (4S)-7-(3,5-Dimethylisoxazol-4-yl)-2-[4-(methylsulfonyl)-1,4-diazepan-1-yl]-4-pyridin-2-yl-4,5-dihydroimidazo[1,5,4-de][1,4]benzoxazine]	< 1000	–
Cc1noc(C)c1-c1ccc2nc(N3CCNCC3)n3c2c1OC[C@@H]3c1ccccn1 [Example 150, (4S)-7-(3,5-Dimethylisoxazol-4-yl)-2-piperazin-1-yl-4-pyridin-2-yl-4,5-dihydroimidazo[1,5,4-de][1,4]benzoxazine trihydrochloride]	< 1000	–
Cc1noc(C)c1-c1ccc2nc(N3CCN(CC(=O)N(C)C)CC3)n3c2c1OC[C@@H]3c1ccccn1 [Example 151, 2-{4-[(4S)-7-(3,5-Dimethylisoxazol-4-yl)-4-pyridin-2-yl-4,5-dihydroimidazo[1,5,4-de][1,4]benzoxazin-2-yl]piperazin-1-yl}-N,N-dimethylacetamide]	< 1000	–
Cc1noc(C)c1-c1ccc2nc(N3CC[C@@H](N(C)C(=O)CC#N)C3)n3c2c1OC[C@@H]3c1ccccn1 [Example 152, 2-Cyano-N-{(3R)-1-[(4S)-7-(3,5-dimethylisoxazol-4-yl)-4-pyridin-2-yl-4,5-dihydroimidazo[1,5,4-de][1,4]benzoxazin-2-yl]pyrrolidin-3-yl}-N-methylacetamide]	< 1000	–
Cc1noc(C)c1-c1ccc2nc(N3CC[C@@H](NC(=O)N4CCOCC4)C3)n3c2c1OC[C@@H]3c1ccccn1 [Example 153, N-{(3R)-1-[(4S)-7-(3,5-Dimethylisoxazol-4-yl)-4-pyridin-2-yl-4,5-dihydroimidazo[1,5,4-de][1,4]benzoxazin-2-yl]pyrrolidin-3-yl}morpholine-4-carboxamide]	< 1000	–
Cc1noc(C)c1-c1ccc2nc(C)n3c2c1OC[C@@H]3c1ccccn1 [Example 154, 7-(3,5-Dimethylisoxazol-4-yl)-2-methyl-4-pyridin-2-yl-4,5-dihydroimidazo[1,5,4-de][1,4]benzoxazine]	< 1000	–
COC(=O)N[C@@H]1CCN(c2nc3ccc(-c4c(C)noc4C)c4c3n2[C@@H](c2ccccn2)CO4)C1 [Example 155, Methyl {(3R)-1-[(4S)-7-(3,5-dimethylisoxazol-4-yl)-4-pyridin-2-yl-4,5-dihydroimidazo[1,5,4-de][1,4]benzoxazin-2-yl]pyrrolidin-3-yl}carbamate]	< 1000	–
Cc1noc(C)c1-c1cc(F)c2nc(N(C)C)n3c2c1OCC3c1cccnc1 (stereo not drawn) [Example 156, 7-(3,5-Dimethylisoxazol-4-yl)-9-fluoro-N,N-dimethyl-4-pyridin-3-yl-4,5-dihydroimidazo[1,5,4-de][1,4]benzoxazin-2-amine]	< 1000	–
